Where “and” joins values, the source holds several entries; their conditions need not be identical. Identical values can stand only once.
System: Acanthocheilonema viteae
Assay: Antifilarial dual infection screen in jirds: adult A. viteae burden and microfilaremia
Type: in vivo, in Mongolian jirds
Excerpt: Dual infections of the filarial worms Brugia pahangi and Acanthocheilonema viteae in jirds are used routinely for antifilarial screening [McCall, J. W., McTier, T. L., and Rowan, S. J., "In vivo models for evaluating potential antifilarial agents", Onchocerciasis/Filariasis (Proceedings of a Symposium sponsored by the World Health Organization), Kalamazoo, Mich., Apr. 8-10, 23-24 (1986)].
For this dual infection screen, male Mongolian jirds weighing 50-60 g are infected SC with 10 (5 male and 5 female) adult A. viteae, transplanted under sodium pentobarbital anesthesia (48 mg/kg) from donor hamsters infected SC 8 weeks earlier. Two weeks later, 20 (10 male and 10 female) adult B. pahangi, taken from donor jirds infected IP 8 weeks earlier, are transplanted into the peritoneal cavity of each jird under sodium pentobarbital anesthesia. After an additional week, when the jirds have acceptable levels of microfilaremia, they are randomly allocated to treatment groups of 3 animals each and a nontreated group of 4-6 animals. Microfilaremia is determined on days 0 (just prior to the first dose), 4 and 56 post-treatment. Unless indicated otherwise, compounds are suspended in hydroxyethylcellulose (0.5%) - Tween 80 (0.1%) and administered SC at 100 mg/kg/day for 5 consecutive days. All jirds are killed on day 56 post-treatment to determine the effects of drugs on adults of A. viteae and B. pahangi. Live worms are identified as to species, noted as to sex, and counted. The number of dead and/or encapsulated worms is also recorded. A reduction of ≥80% in microfilaremia or ≥50% in adult worm burden (either species) compared with pre-treatment microfilaremia or non-treated control worm burden, respectively, is considered to be significant. For secondary testing with this dual infection screen, groups of 7 animals each are used. For oral dosing, drugs are dissolved or suspended in hydroxyethylcellulose - Tween 80 and administered by gavage.

In the case of `COC(=O)Nc1nc2cc(C(N)c3ccc(F)cc3)ccc2[nH]1.Cl.Cl` (racemic) [Example 2, Methyl (±)-[5-[Amino(4Fluorophenyl)Methyl]-1H-Benzimidazol-2-yl]Carbamate Dihy drochloride Salt], the “% Macrofilarial reduction, A. viteae” value (1.56 mg/kg/day × 5 days, SC, day 56) is reported as 48%, the “% Microfilarial reduction, A. viteae, Day 4” value (3.13 mg/kg/day × 5 days, SC) is reported as 88% and the “% Microfilarial reduction, A. viteae, Day 56” value (3.13 mg/kg/day × 5 days, SC) is reported as 100%. The “% Macrofilarial reduction, A. viteae” value (3.13 mg/kg/day × 5 days, SC, day 56, 3.13 mg/kg/day) was 74% and 69%, the “% Microfilarial reduction, A. viteae, Day 4” value (6.25 mg/kg/day × 5 days, SC) was 83% and the “% Microfilarial reduction, A. viteae, Day 56” value (6.25 mg/kg/day × 5 days, SC) was 100%. The “% Macrofilarial reduction, A. viteae” value (6.25 mg/kg/day × 5 days, SC, day 56) was 100%, the “% Macrofilarial reduction, A. viteae” value (12.5 mg/kg/day × 1 day, SC, day 56) was 83% and the “% Microfilarial reduction, A. viteae, Day 4” value (12.5 mg/kg/day × 5 days, SC) was 80%. For the same molecule, the “% Microfilarial reduction, A. viteae, Day 56” value (12.5 mg/kg/day × 5 days, SC) was 100%, the “% Macrofilarial reduction, A. viteae” value (12.5 mg/kg/day × 5 days, SC, day 56) was 100% and the “% Macrofilarial reduction, A. viteae” value (25 mg/kg/day × 1 day, SC, day 56) was 96%. The “% Macrofilarial reduction, A. viteae” value (25 mg/kg/day × 5 days, SC, day 56) was 100%, the “% Macrofilarial reduction, A. viteae” value (75 mg/kg/day × 5 days, oral, day 56) was 83% and the “% Microfilarial reduction, A. viteae, Day 4” value (100 mg/kg/day × 5 days, oral) was 50%. For the same molecule, the “% Microfilarial reduction, A. viteae, Day 56” value (100 mg/kg/day × 5 days, oral) was 75% and the “% Macrofilarial reduction, A. viteae” value (100 mg/kg/day × 5 days, oral, day 56) was 80%.
